In ChEMBL document CHEMBL4014322, “Atropisomerism and Conformational Equilibria: Impact on PI3Kδ Inhibition of 2-((6-Amino-9H-purin-9-yl)methyl)-5-methyl-3-(o-tolyl)quinazolin-4(3H)-one (IC87114) and Its Conformationally Restricted Analogs” (J Med Chem, 2017):
pIC50, pKi: −log10 of the molar value.

Assays:
[1] = target: PI3-kinase p110-delta/p85-alpha (Homo sapiens, UniProt O00329); test: Inhibition of human recombinant full length N-terminal His6-tagged PI3K p110delta/p85alpha expressed in baculovirus infected Sf9 insect cells using PI:PS as substrate after 60 mins by ADP-Glo assay
Sequence of PI3-kinase p110-delta/p85-alpha (P27986 whole entry, one chain of several, canonical isoform): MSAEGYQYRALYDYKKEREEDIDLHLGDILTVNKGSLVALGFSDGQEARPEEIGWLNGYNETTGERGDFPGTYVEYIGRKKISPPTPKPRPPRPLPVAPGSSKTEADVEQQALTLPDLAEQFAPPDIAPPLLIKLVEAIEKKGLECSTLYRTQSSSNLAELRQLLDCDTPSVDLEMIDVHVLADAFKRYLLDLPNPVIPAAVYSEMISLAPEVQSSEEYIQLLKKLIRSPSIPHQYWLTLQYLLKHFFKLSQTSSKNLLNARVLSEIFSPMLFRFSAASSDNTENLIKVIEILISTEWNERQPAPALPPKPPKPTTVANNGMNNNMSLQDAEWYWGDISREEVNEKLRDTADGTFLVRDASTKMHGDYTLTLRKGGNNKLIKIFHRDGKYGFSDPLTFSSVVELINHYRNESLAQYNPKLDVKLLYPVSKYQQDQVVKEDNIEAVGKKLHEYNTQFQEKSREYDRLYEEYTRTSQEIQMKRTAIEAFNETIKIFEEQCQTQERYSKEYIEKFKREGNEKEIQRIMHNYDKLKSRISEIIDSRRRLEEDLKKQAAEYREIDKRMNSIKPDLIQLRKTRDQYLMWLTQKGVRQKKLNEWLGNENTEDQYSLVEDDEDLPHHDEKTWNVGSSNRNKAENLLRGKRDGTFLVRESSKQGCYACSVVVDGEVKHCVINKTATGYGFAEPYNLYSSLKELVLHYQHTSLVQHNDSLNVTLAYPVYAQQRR

[2] = target: T1, Phosphatidylinositol 4,5-bisphosphate 3-kinase catalytic subunit delta isoform (Homo sapiens, UniProt O00329)
T1 sequence (O00329 whole entry): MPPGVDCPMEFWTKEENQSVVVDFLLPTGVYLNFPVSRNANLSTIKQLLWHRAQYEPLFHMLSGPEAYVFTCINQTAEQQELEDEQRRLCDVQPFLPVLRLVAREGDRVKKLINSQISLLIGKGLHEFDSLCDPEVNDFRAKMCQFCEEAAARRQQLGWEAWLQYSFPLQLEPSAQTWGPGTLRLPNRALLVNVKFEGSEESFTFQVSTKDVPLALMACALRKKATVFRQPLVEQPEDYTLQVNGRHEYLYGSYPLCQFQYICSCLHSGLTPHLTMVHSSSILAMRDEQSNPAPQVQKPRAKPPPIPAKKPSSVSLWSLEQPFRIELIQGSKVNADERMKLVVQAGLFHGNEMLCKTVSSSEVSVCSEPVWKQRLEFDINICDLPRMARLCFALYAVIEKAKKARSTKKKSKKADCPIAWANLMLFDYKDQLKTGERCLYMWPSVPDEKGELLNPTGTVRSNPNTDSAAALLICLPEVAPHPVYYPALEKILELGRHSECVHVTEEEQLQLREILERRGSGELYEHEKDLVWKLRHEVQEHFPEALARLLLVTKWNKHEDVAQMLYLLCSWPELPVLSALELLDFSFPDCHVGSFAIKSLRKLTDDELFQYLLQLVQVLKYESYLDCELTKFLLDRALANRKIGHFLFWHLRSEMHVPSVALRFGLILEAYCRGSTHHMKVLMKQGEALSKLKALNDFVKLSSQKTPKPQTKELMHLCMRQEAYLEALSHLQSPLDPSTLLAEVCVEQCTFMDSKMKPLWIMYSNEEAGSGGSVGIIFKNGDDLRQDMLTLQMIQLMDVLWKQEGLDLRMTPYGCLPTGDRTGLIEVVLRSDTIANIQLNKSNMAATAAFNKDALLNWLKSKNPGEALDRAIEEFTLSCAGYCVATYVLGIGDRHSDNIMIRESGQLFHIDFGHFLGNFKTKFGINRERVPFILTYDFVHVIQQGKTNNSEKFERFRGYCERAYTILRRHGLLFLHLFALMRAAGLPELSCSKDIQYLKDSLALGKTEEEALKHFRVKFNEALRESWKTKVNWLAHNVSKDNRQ
Description: Inhibition of PI3Kdelta in human PBMC assessed as reduction in anti-human CD28 antibody stimulated IL-6 secretion levels after 72 hrs by ELISA

SMILES	pKi [1]	pIC50 [2]
Cc1cccc2nc(Cn3cnc4c(N)ncnc43)n(-c3ccccc3)c(=O)c12	7.60	7.30
Cc1ccccc1-n1c([C@H](C)n2cnc3c(N)ncnc32)nc2cccc(C)c2c1=O (stereo in doubt; form 1)	8.50	8.20
Cc1ccccc1-n1c([C@@H](C)n2cnc3c(N)ncnc32)nc2cccc(C)c2c1=O (stereo in doubt; form 1)	6.90	–
Cc1ccccc1-n1c([C@H](C)n2cnc3c(N)ncnc32)nc2cccc(C)c2c1=O (stereo in doubt; form 2)	8.80	8.90
Cc1ccccc1-n1c([C@@H](C)n2cnc3c(N)ncnc32)nc2cccc(C)c2c1=O (stereo in doubt; form 2)	7.90	–
